# Measured values taken from US9359337B2, “Acetamide derivatives” (Hoffmann-La Roche Inc., priority 2012, dated 2016).
# Biological target: h-TRPA1 (Homo sapiens (Human), UniProt O75762)
# Assay: Dose response calcium flux (FLIPR) assay, ChanTest hTRPA1-CHO stably transfected cell line
# Type: cell-based
# Details: CHO-K1 Tet-on TRPA1 cells; calcium flux after cinnamaldehyde 100 uM agonist; 30 min compound preincubation
# Protocol: Dose Response Assay: ChanTest hTRPA1-CHO Stably Transfected Cell Line
# To induce expression, tetracycline was added to blasticidin/zeocin-free media at a final concentration of 1 ug/ml. Experiments were run at 24 hours post induction.
# • Harvested cells with 0.025% trypsin/EDTA. • Resuspended cells in growth media without selection antibiotics. • Measured cell density and diluted to 2.4×10^5 cells/ml in media containing 1 ug/ml Doxycycline Plate 25 ul/well into 384 well black/clear tissue culture-treated plates. • Incubated overnight at 37° C. Calcium Flux Assay: Day of Assay: Reagents: • Replacement Buffer: Hank's Balanced Salt Solution, 20 mM HEPES along with 0.005% BSA and 2× Probenecid • Dye Loading Buffer: Cal-3 NW Calcium dye was prepared by dissolving the contents of one vial with […] Hank's Balanced Salt Solution containing 20 mM HEPES. Control Compounds for CHOK1/TRPA1 Cells: • AP-18, stock 10 mM, prepare 3.5× compound dilution in a Compound Buffer (HBSS/20 mM HEPES/0.005% BSA)—final concentration 10 uM. Preparation of Cinnamaldehyde (Agonist Addition): • FW=132.16 • Specific gravity=1.046 gm/cc • 1.32 gm/1.046 gm/cc=1.26 ml of stock • Add 1.74 ml DMSO=3.3 M stock • Working solution 4.5× (final 100 uM in Compound Buffer: HBSS/20 mM HEPES/0.005% BSA) Compounds dilutions were prepared from 5 or 10 mM stock (100% DMSO):
# Compounds were tested at either 20 μM three folds dilution 11 steps out or 30 μM two folds dilution 11 steps out.
# Growth media was removed from the cell plates (20 ul) and 20 ul of the Replacement Buffer was added followed by addition of 25 ul of diluted dye. All three steps were performed using a Plate Washer BioTek 407. The plates were then incubated for 30′ at RT.
# After incubation, both the cell and compound plates were brought to the FLIPR and 20 ul of the diluted compounds/antagonist/bk were transferred to the cell plates by the FLIPR. Plates were then incubated for 30′ at room temperature. After 30′ incubation, plates were returned to the FLIPR and 20 ul of 4.5× Cinnamaldehyde was added to the cell plates. During the compound addition as well as agonist addition, fluorescence readings were taken simultaneously from all 384 wells of the cell plate every 1.5 seconds. Five readings were taken to establish a stable baseline, then 20 ul of sample was rapidly (30 ul/sec) and simultaneously added to each well of the cell plate. The fluorescence was continuously monitored before, during and after sample/agonist addition for a total elapsed time of 100 seconds (compound addition) and 120 seconds (agonist addition). Responses (increase in peak fluorescence) in each well following agonist addition was determined. The initial fluorescence reading from each well, prior to ligand stimulation, was used a zero baseline value for the data from that well.
# h-TRPA1, sequence (O75762 whole entry): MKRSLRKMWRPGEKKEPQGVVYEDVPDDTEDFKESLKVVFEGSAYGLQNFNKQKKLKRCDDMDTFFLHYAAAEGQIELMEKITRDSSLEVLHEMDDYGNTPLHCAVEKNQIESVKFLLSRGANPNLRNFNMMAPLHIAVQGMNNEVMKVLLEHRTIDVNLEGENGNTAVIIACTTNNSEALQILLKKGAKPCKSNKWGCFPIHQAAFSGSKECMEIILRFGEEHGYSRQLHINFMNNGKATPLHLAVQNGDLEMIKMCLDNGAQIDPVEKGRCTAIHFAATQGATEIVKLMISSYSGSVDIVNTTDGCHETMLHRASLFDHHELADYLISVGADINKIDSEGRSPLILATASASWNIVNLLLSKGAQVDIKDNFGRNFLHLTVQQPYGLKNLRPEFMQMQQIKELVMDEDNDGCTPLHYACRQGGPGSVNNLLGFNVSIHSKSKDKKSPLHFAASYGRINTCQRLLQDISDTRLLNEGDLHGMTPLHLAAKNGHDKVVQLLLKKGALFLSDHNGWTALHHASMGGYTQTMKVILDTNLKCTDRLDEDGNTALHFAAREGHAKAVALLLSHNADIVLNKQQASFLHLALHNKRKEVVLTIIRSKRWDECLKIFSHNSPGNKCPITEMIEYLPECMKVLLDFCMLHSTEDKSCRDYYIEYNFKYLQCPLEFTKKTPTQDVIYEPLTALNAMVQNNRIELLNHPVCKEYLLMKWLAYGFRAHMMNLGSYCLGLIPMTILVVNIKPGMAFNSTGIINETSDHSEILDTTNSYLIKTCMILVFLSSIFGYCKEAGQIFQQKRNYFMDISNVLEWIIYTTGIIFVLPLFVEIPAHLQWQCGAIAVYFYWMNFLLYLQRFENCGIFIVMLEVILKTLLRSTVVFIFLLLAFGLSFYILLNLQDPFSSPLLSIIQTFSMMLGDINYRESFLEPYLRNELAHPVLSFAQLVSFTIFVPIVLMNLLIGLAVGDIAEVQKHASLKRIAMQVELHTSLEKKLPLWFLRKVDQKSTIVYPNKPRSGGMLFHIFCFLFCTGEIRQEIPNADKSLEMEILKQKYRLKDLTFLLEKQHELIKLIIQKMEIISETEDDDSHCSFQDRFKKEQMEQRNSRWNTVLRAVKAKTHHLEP
row,Structure (SMILES),IC50 [nM]
1,"CCN(CC(=O)NCC1CCN(c2ccc(C(F)(F)F)cc2)C1)S(=O)(=O)c1ccc(F)cc1 (centres unmarked) [Example 3, 2-[Ethyl-(4-fluoro-benzenesulfonyl)-amino]-N-[1-(4-trifluoromethyl-phenyl)-pyrrolidin-3-ylmethyl]-acetamide]",634
2,"CC(C)N(CC(=O)NC[C@@H]1CN(c2ccc(C(F)(F)F)cc2)CCO1)S(=O)(=O)c1ccc(F)cc1 [Example 10, 2-[(4-Fluoro-benzenesulfonyl)-isopropyl-amino]-N—[(R)-4-(4-trifluoromethyl-phenyl)-morpholin-2-ylmethyl]-acetamide]",1310
3,"CC(C)N(CC(=O)NC[C@H]1CCCN(c2ccc(C(F)(F)F)cc2)C1)S(=O)(=O)c1ccc(F)cc1 [Example 6, 2-[(4-Fluoro-benzenesulfonyl)-isopropyl-amino]-N—[(R)-1-(4-trifluoromethyl-phenyl)-piperidin-3-ylmethyl]-acetamide]",504
4,"CC(C)N(CC(=O)NCC1CCCN(c2ccc(C(F)(F)F)cc2)C1)S(=O)(=O)c1ccc(F)cc1 (racemic) [Example 2, 2-[(4-Fluoro-benzenesulfonyl)-isopropyl-amino]-N-[1-(4-trifluoromethyl-phenyl)-piperidin-3-ylmethyl]-acetamide]",233
5,"CC(C)N(CC(=O)NCC1CN(c2ccc(C(F)(F)F)cn2)CCO1)S(=O)(=O)c1ccc(F)cc1 (centres unmarked) [Example 12, 2-[(4-Fluoro-benzenesulfonyl)-isopropyl-amino]-N-[4-(5-trifluoromethyl-pyridin-2-yl)-morpholin-2-ylmethyl]-acetamide]",385
6,"CC(C)N(CC(=O)NC[C@@H]1CCCN(c2ccc(C(F)(F)F)cc2)C1)S(=O)(=O)c1ccc(F)cc1 [Example 5, 2-[(4-Fluoro-benzenesulfonyl)-isopropyl-amino]-N—[(S)-1-(4-trifluoromethyl-phenyl)-piperidin-3-ylmethyl]-acetamide]",307
7,"CC(C)N(CC(=O)NC[C@H]1CN(c2ccc(C(F)(F)F)cc2)CCO1)S(=O)(=O)c1ccc(F)cc1 [Example 11, 2-[(4-Fluoro-benzenesulfonyl)-isopropyl-amino]-N—[(S)-4-(4-trifluoromethyl-phenyl)-morpholin-2-ylmethyl]-acetamide]",151
8,"CCN(CC(=O)NCC1CN(c2ccc(C(F)(F)F)cc2)CCO1)S(=O)(=O)c1ccc(F)cc1 (centres unmarked) [Example 9, 2-[Ethyl-(4-fluoro-benzenesulfonyl)-amino]-N-[4-(4-trifluoromethyl-phenyl)-morpholin-2-ylmethyl]-acetamide]",226
9,"CCN(CC(=O)NCC1CCCN(c2ccc(C(F)(F)F)cc2)C1)S(=O)(=O)c1ccc(F)cc1 (centres unmarked) [Example 1, 2-[Ethyl-(4-fluoro-benzenesulfonyl)-amino]-N-[1-(4-trifluoromethyl-phenyl)-piperidin-3-ylmethyl]-acetamide]",494
10,"CC(C)N(CC(=O)NCC1CCN(c2ccc(C(F)(F)F)cc2)C1)S(=O)(=O)c1ccc(F)cc1 (centres unmarked) [Example 4, 2-[(4-Fluoro-benzenesulfonyl)-isopropyl-amino]-N-[1-(4-trifluoromethyl-phenyl)-pyrrolidin-3-ylmethyl]-acetamide]",425
11,"CC(C)N(CC(=O)NCC1CN(c2ccc(C(F)(F)F)cc2)CCO1)S(=O)(=O)c1ccc(F)cc1 (racemic) [Example 8, 2-[(4-Fluoro-benzenesulfonyl)-isopropyl-amino]-N-[4-(4-trifluoromethyl-phenyl)-morpholin-2-ylmethyl]-acetamide]",193
